The source of these data is patent US20050054680A1, “Agonists and antagonists of 5h3-like receptors of invertebrates as pesticides” (priority 2001, published 2005).

The structures appear in SMILES notation. “Also recorded” adds a separate entry of the source. Read-outs that look alike come from different tables or passages of the source.

Series [1] deals with C. elegans of the Bristol N2 strain. As to the kind of experiment: Automated feeding assay (bead ingestion, pharyngeal pumping). It is filed as in vivo, Caenorhabditis elegans. The conditions noted are these: for IC50: Caenorhabditis elegans; for Effect of 0.325 mM compound on serotonin-stimulated (0.325 mM) bead ingestion: 0.325 mM compound plus 0.325 mM serotonin; for Effect of 0.325 mM compound on bead ingestion: no added serotonin. The source says:
An automated screening assay has been developed and described in the present Applicants' co-pending International patent application No. PCT/AU00/01476 (WO 01/40500). Using the screening assay, twenty novel tropanyl ester compounds as well as tropanyl dichlorobenzoate were screened for nematicidal activity.
The assay used was essentially that described in WO 01/40500 with minor modifications. The protocol was as follows:
(1.) Plate Culture. C. elegans of the Bristol N2 strain (Brenner, 1974) were cultured at room temperature on HMS174 E. coli bacteria (Campbell et al., 1978) spread on a 150 mm diameter petri dish containing enhanced NGM 1.7% (w/v) (Avery and Horvitz, 1990) agar until a good population of adult nematodes was present, but food reserves had not been exhausted.
(2.) The nematodes were collected by washing each plate with 10 mL and then 5 mL of M9 buffer plate and filtering over a 20 μm nylon mesh (Nytal—Catalogue no. BCNY-HDO02-20) to retain adult nematodes. The nematodes from 7-8 of these 150 mm plates were collected together and placed on a 63 μm mesh filter (Nytal—product code PA-25-43) and washed with 200-250 mL of M9 buffer or MilliQ water. This procedure allows the passage of nematodes whilst retaining larger debris. Finally the nematodes were collected over a 20 μm mesh.
(3.) Adult nematodes were collected from the mesh using a pasteur pipette and allowed to settle in an eppendorf tube at 1×g for 10 minutes. This packed volume was used to calculate quantities of nematodes for experiments and assays, although nematodes were resuspended in 2-10 volumes of M9 buffer for transfer. Quantitative transfers of nematodes were performed using a Gilson Pipetman P200 or equivalent and a yellow tip with 5 mm cut off the sharp end.
(4.) Assays were performed in 24 well tissue-lture clusters (Nunc multidish). The final assay volume was 230 μL comprising the following sequential additions: • (i) M9 buffer—sufficient to bring the final volume to 230 μL • ([…]) Any other pharmacological agents—≦1.5 μL of drug in DMSO (or water) • (iv) Nematodes—150 μL of a 10% (v/v) stock in M9 • (v) Fluorescent beads—23 μL of a 1% w/v solution in M9.
Where serotonin or other pharmacological agents were omitted, the volume was adjusted with M9 buffer. Control experiments included 1.5 μL of DMSO except in the case of ondansetron, which was added from an aqueous stock.
The fluorescent beads were 1.30 μm uniformly dyed microsphere beads with a hydrophilic surface-coating. The fluorescence excitation maximum was 420 nm and the emission maximum was 485 nm (catalogue code FC04F, carboxylate-modified polystyrene/polyvinyl copolymer, manufactured and supplied by Bangs Laboratories, Inc. 9025 Technology Drive, Fishers, INDIANA 46038-2886, USA).
(5.) The nematodes were incubated for 60 minutes after the addition of the fluorescent beads at room temperature (≈21° C.) without shaking. The assay was terminated by the addition of 20 μL of 100 mM sodium azide.
(6.) Two aliquots of 100 μl each were transferred from each well of the 24 well cluster to a pair of wells in a pre-blocked mesh-bottomed plate (see below for details of the mesh-bottomed plate) and the buffer/bead suspension was immediately aspirated away through the filter mesh using a Millipore Multiscreen vacuum manifold.
(7.) A total of eight washing steps were performed. Each of the first five washes used 200 μL of 1%(w/v) sodium lauryl sulphate (SDS—Sigma) in M9 buffer. The third and fifth washes involved pipetting the solution up and down in the wells of the plate ten times each wash. The SDS washes were followed by three washes with 200 μL of M9 buffer only. At the end of each washing step, solutions were aspirated away through the mesh using a Millipore Multiscreen vacuum manifold. […]

The subject of the next series is nematode C. elegans. The conditions noted are these: cited from earlier work; for Effect on pharyngeal pumping: as summarised in the background, no concentration given; for Effect on serotonin-stimulated rate of pharyngeal pumping: drug 0.325 mM, serotonin 0.325 mM.
The next series has as its system insects. The conditions noted are these: in vivo; cited from earlier work.
The next series concerns C. elegans. Particulars: cited from earlier work.
The test system of the next series is aphid Myzus persicae. Particulars: in vivo; cited from earlier work.
The subject of series [2] is larvae of the lepidopteran Helicoverpa armigera. The conditions noted are these: in vivo; cited from earlier work.
[3] abbreviates: in the presence of 1 mM serotonin, estimated from log dose response curves (FIG. 2), read-out: IC50 (inhibitory concentration 50%) for bead ingestion.
Where [4] appears, read: listed as tropanyl dichlorobenzoate.

Regarding `Cc1nccn1CC1CCc2c(c3ccccc3n2C)C1=O` (centres unmarked) [ondansetron], the IC50 in series [1] (setting [3]) was 562 µM. Moreover, in the series with nematode C. elegans, the “Effect on pharyngeal pumping” value was “profoundly inhibited” and the “Effect on serotonin-stimulated rate of pharyngeal pumping” value is recorded as “antagonised the stimulatory effect”. Besides, the “Detrimental effects in insects” value in the series on insects was “significant detrimental effects, including some mortality”.
With `CN1[C@@H]2CC[C@H]1CC(OC(=O)c1cc(Cl)cc(Cl)c1)C2` (some centres unmarked) [MDL 72222, 3,5-dichlorobenzoic acid tropan-3-yl ester], the “Effect of 0.325 mM compound on serotonin-stimulated (0.325 mM) bead ingestion” value in series [1] was “reverses strongly”; in series [1] (setting [4]), “strongly reversed”. Further, the entries for the “Effect of 0.325 mM compound on bead ingestion” value in series [1] and in series [1] (setting [4]) were “inhibits” and “reduced”, respectively. The IC50 was 11 µM in series [1] (in the absence of added serotonin, estimated (FIG. 2), read-out: IC50 (dose that depressed the basal bead ingestion rate by 50%)) and 40 µM in series [1] (setting [3]). In addition, in the series with nematode C. elegans, the “Effect on pharyngeal pumping” value was “profoundly inhibited”. In the series with nematode C. elegans, the “Effect on serotonin-stimulated rate of pharyngeal pumping” value is given as “antagonised the stimulatory effect”. Besides, the “Detrimental effects on C. elegans” value with C. elegans (in vivo, listed as tropanyl dichlorobenzoate) is “dose-dependent mortality and other detrimental effects; also recorded: dose-dependent detrimental effects, including lethality”. The “Lowest effective concentration in the chronic toxicity assay” value with C. elegans (reported previously in WO 01/61000) was roughly 11 µM. Further, the “Detrimental effects on Myzus persicae” value in the series on aphid Myzus persicae was “dose-dependent detrimental effects, including lethality”. The “Effect on larval growth rates” value in series [2] is given as “reduced growth rates”. In addition, the “Detrimental effects in insects” value with insects is “significant detrimental effects, including some mortality”.
